The supplement of paper PMC10307832

Legend:
Experiment in all cases: relative viability (nuclei count vs DMSO), 5 days (fraction); higher = more cells survive
[1] = system: A-427
Summary of the method: (§1)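 Cells from lung cancer lines were seeded into 1536-well plates and, one day later, dosed by pin tool. Treatments were either a single drug or a fixed dose of an anchor drug with five library-drug doses (not always all listed) in √10 steps. After 5 days, nuclei were stained in a one-step fixation (final 0.05% Triton X-100, 1% formaldehyde, 1 ug/ml Hoechst) and counted on 4× images, and relative viability is the treated-to-vehicle nuclei ratio, as the median of duplicate plates.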

[2] = system: HCC-15
Summary of the method: as §1

[3] = system: HCC-78
Summary of the method: as §1

[4] = system: HOP-62
Summary of the method: as §1

[5] = system: LC-2-ad
Summary of the method: as §1

[6] = system: LOU-NH91
Summary of the method: as §1

[7] = system: LXF-289
Summary of the method: as §1

[8] = system: NCI-H1734
Summary of the method: as §1

[9] = system: NCI-H1755
Summary of the method: as §1

[10] = system: NCI-H1915
Summary of the method: as §1

[11] = system: NCI-H1975
Summary of the method: as §1

[12] = system: NCI-H2126
Summary of the method: as §1

[13] = system: NCI-H2228
Summary of the method: as §1

[14] = system: NCI-H2342
Summary of the method: as §1

[15] = system: NCI-H2347
Summary of the method: as §1

[16] = system: NCI-H358
Summary of the method: as §1

[17] = system: NCI-H460
Summary of the method: as §1

[18] = system: NCI-H647
Summary of the method: as §1

[19] = system: PC-3 [JPC-3]
Summary of the method: as §1

[20] = system: RERF-LC-KJ
Summary of the method: as §1

[21] = system: SK-LU-1
Summary of the method: as §1

[22] = system: SW 1573
Summary of the method: as §1

SMILES: CC1(C)CCC(c2ccc(Cl)cc2)=C(CN2CCN(c3ccc(C(=O)NS(=O)(=O)c4ccc(N[C@H](CCN5CCOCC5)CSc5ccccc5)c(S(=O)(=O)C(F)(F)F)c4)cc3)CC2)C1 [Navitoclax] + O=C(CCCCCCC(=O)Nc1ccccc1)NO [Vorinostat] (partner 1 µM)
- relative viability ([1]; first compound 0.005 µM): 0.915
- relative viability ([1]; first compound 0.01581 µM): 0.873
- relative viability ([1]; first compound 0.05 µM): 0.91
- relative viability ([1]; first compound 0.1581 µM): 0.892
- relative viability ([1]; first compound 0.5 µM): 0.838
- relative viability ([2]; first compound 0.005 µM): 0.808
- relative viability ([2]; first compound 0.01581 µM): 0.831
- relative viability ([2]; first compound 0.05 µM): 0.684
- relative viability ([2]; first compound 0.1581 µM): 0.794
- relative viability ([2]; first compound 0.5 µM): 0.809
- relative viability ([3]; first compound 0.005 µM): 0.415
- relative viability ([3]; first compound 0.01581 µM): 0.49
- relative viability ([3]; first compound 0.05 µM): 0.429
- relative viability ([3]; first compound 0.1581 µM): 0.431
- relative viability ([3]; first compound 0.5 µM): 0.431
- relative viability ([4]; first compound 0.005 µM): 0.669
- relative viability ([4]; first compound 0.01581 µM): 0.644
- relative viability ([4]; first compound 0.05 µM): 0.618
- relative viability ([4]; first compound 0.1581 µM): 0.529
- relative viability ([4]; first compound 0.5 µM): 0.842
- relative viability ([5]; first compound 0.005 µM): 0.716
- relative viability ([5]; first compound 0.01581 µM): 0.686
- relative viability ([5]; first compound 0.05 µM): 0.665
- relative viability ([5]; first compound 0.1581 µM): 0.67
- relative viability ([5]; first compound 0.5 µM): 0.712
- relative viability ([6]; first compound 0.005 µM): 0.956
- relative viability ([6]; first compound 0.01581 µM): 0.925
- relative viability ([6]; first compound 0.05 µM): 0.791
- relative viability ([6]; first compound 0.1581 µM): 0.639
- relative viability ([6]; first compound 0.5 µM): 0.437
- relative viability ([7]; first compound 0.005 µM): 0.752
- relative viability ([7]; first compound 0.01581 µM): 0.842
- relative viability ([7]; first compound 0.05 µM): 0.697
- relative viability ([7]; first compound 0.1581 µM): 0.799
- relative viability ([7]; first compound 0.5 µM): 0.814
- relative viability ([8]; first compound 0.005 µM): 0.829
- relative viability ([8]; first compound 0.01581 µM): 0.938
- relative viability ([8]; first compound 0.1581 µM): 0.755
- relative viability ([8]; first compound 0.5 µM): 0.703
- relative viability ([9]; first compound 0.005 µM): 0.778
- relative viability ([9]; first compound 0.01581 µM): 0.798
- relative viability ([9]; first compound 0.05 µM): 0.543
- relative viability ([9]; first compound 0.1581 µM): 0.728
- relative viability ([9]; first compound 0.5 µM): 0.691
- relative viability ([10]; first compound 0.005 µM): 0.497
- relative viability ([10]; first compound 0.01581 µM): 0.499
- relative viability ([10]; first compound 0.05 µM): 0.556
- relative viability ([10]; first compound 0.1581 µM): 0.481
- relative viability ([10]; first compound 0.5 µM): 0.424
- relative viability ([11]; first compound 0.005 µM): 0.718
- relative viability ([11]; first compound 0.01581 µM): 0.765
- relative viability ([11]; first compound 0.05 µM): 0.752
- relative viability ([11]; first compound 0.1581 µM): 0.718
- relative viability ([11]; first compound 0.5 µM): 0.592
- relative viability ([12]; first compound 0.005 µM): 0.789
- relative viability ([12]; first compound 0.01581 µM): 0.875
- relative viability ([12]; first compound 0.05 µM): 0.795
- relative viability ([12]; first compound 0.1581 µM): 0.761
- relative viability ([12]; first compound 0.5 µM): 0.681
- relative viability ([13]; first compound 0.005 µM): 1.13
- relative viability ([13]; first compound 0.01581 µM): 0.639
- relative viability ([13]; first compound 0.1581 µM): 0.397
- relative viability ([13]; first compound 0.5 µM): 0.641
- relative viability ([14]; first compound 0.005 µM): 0.752
- relative viability ([14]; first compound 0.01581 µM): 0.732
- relative viability ([14]; first compound 0.05 µM): 0.814
- relative viability ([14]; first compound 0.1581 µM): 0.804
- relative viability ([14]; first compound 0.5 µM): 0.779
- relative viability ([15]; first compound 0.005 µM): 0.623
- relative viability ([15]; first compound 0.01581 µM): 0.628
- relative viability ([15]; first compound 0.05 µM): 0.534
- relative viability ([15]; first compound 0.1581 µM): 0.61
- relative viability ([15]; first compound 0.5 µM): 0.542
- relative viability ([16]; first compound 0.005 µM): 0.705
- relative viability ([16]; first compound 0.01581 µM): 0.816
- relative viability ([16]; first compound 0.05 µM): 0.689
- relative viability ([16]; first compound 0.1581 µM): 0.652
- relative viability ([16]; first compound 0.5 µM): 0.848
- relative viability ([17]; first compound 0.005 µM): 0.614
- relative viability ([17]; first compound 0.01581 µM): 0.7
- relative viability ([17]; first compound 0.05 µM): 0.561
- relative viability ([17]; first compound 0.1581 µM): 0.645
- relative viability ([17]; first compound 0.5 µM): 0.737
- relative viability ([18]; first compound 0.005 µM): 0.536
- relative viability ([18]; first compound 0.01581 µM): 0.52
- relative viability ([18]; first compound 0.05 µM): 0.673
- relative viability ([18]; first compound 0.1581 µM): 0.405
- relative viability ([18]; first compound 0.5 µM): 0.512
- relative viability ([19]; first compound 0.005 µM): 0.874
- relative viability ([19]; first compound 0.01581 µM): 0.868
- relative viability ([19]; first compound 0.05 µM): 0.877
- relative viability ([19]; first compound 0.1581 µM): 0.817
- relative viability ([19]; first compound 0.5 µM): 0.499
- relative viability ([20]; first compound 0.005 µM): 0.718
- relative viability ([20]; first compound 0.01581 µM): 0.654
- relative viability ([20]; first compound 0.05 µM): 0.645
- relative viability ([20]; first compound 0.1581 µM): 0.673
- relative viability ([20]; first compound 0.5 µM): 0.622
- relative viability ([21]; first compound 0.005 µM): 0.787
- relative viability ([21]; first compound 0.01581 µM): 0.776
- relative viability ([21]; first compound 0.05 µM): 0.689
- relative viability ([21]; first compound 0.1581 µM): 0.627
- relative viability ([21]; first compound 0.5 µM): 0.516
- relative viability ([22]; first compound 0.005 µM): 0.607
- relative viability ([22]; first compound 0.01581 µM): 0.9
- relative viability ([22]; first compound 0.05 µM): 0.683
- relative viability ([22]; first compound 0.1581 µM): 0.475
- relative viability ([22]; first compound 0.5 µM): 0.597
